{"source": "paper PMC12320299", "about": "(Chemical Science, 2025)", "test_system": "SW480 cancer cells", "assay": "Proteome profiling of compound-treated SW480 cancer cells (24 h, approx. IC50, CYT and NE fractions)", "assay_type": "cell-based, human", "method": "To gain insight into potential modes of action and derive structure–activity relationships on a molecular level, proteomic profiling experiments were carried out based on label-free quantification (LFQ) by nano-liquid chromatography tandem mass spectrometry (nLC-MS/MS). […] Six replicates were used per condition. The perturbations were evaluated at subcellular resolution by fractionating cells into cytoplasmic (CYT) and nuclear (NE) protein fractions. Those have been separately proteolytically digested and analysed (Fig. 3A). The perturbations with the 3-Et-NQ and 3-Morph-NQ complexes were performed against their respective solvent-treated controls (CON), yielding a total of 72 samples. […] Statistical significance of individual protein regulations was calculated by multiple testing-corrected P-values based on 5% false discovery rate (FDR = 0.05 and S0 = 0.1).\nThe position of each group represents the summed fold-changes of the individual proteins in the group according to the subcellular space, i.e., CYT and NE fractions, while the size represents the number of proteins in each group. […]\nProteome profiling of compound-treated SW480 cancer cells […]\ncells per well and left to adhere in complete cell culture medium. After 24 h, the medium was exchanged with fresh complete medium (DMSO mock control) or fresh medium containing […]\nsolution in DMSO, respectively) and incubated for another 24 h. Each condition was carried out in hexuplicates. The cells were processed according to a nucleocytoplasmic fractionation protocol as previously described.3 All steps were performed on ice. The medium was removed, and the cells were washed twice with 1×PBS (phosphate buffered saline, 3 mL). Then, PBS was thoroughly removed. Isotonic lysis buffer (10 mM HEPES, 10 mM NaCl, 3.5 mM MgCl2, 1 mM EGTA, 0.25 M Sucrose, 0.5% Triton X-100) containing protease inhibitors (1% PMSF, Sigma, and 1% protease and phosphatase inhibitor cocktail, Roche) was added to the flasks, the cells were scraped off and transferred into labelled 15 mL Falcon tubes. The cellular membrane was ruptured using shear stress by pressing the cell suspension through a syringe 9–12 times. Membrane rupture with intact nuclei was monitored under a microscope. After centrifugation (960 g, 5 min), the supernatant containing the cytoplasmic (CYT) proteins was transferred into new tubes containing ice-cold ethanol (1 : 5, HPLC grade) and precipitated […]\novernight at –20 °C. The pellet containing the nuclei was incubated with a hypertonic solution (10 mM Tris-HCl, 1 mM EDTA and 0.5 M NaCl) and subsequently diluted 1:10 with NP-40 buffer (10 mm Tris-HCl, 1 mm EDTA and 0.5% Triton X-100) containing protease inhibitors (1% PMSF, Sigma, and 1% protease and phosphatase inhibitor cocktail, Roche). After centrifugation (960 g, 5 min), the soluble nuclear (NE) proteins were also transferred into new tubes containing ice-cold ethanol (1 : 5, HPLC grade) and precipitated overnight at –20 °C.\nThe precipitated proteins were finally pelleted by centrifugation (5000 g, 30 min, 4 °C), the solution was decanted and the pellet dried under vacuum.", "data": [{"compound": "Cc1ccc(C(C)C)cc1.O=C1C(CN2CCOCC2)=C2[O][Ru][O]C2(n2cccn2)c2ccccc21", "note": "(stereo not drawn) [Compound 1b]", "values": [{"measurement": "N° significantly regulated proteins, Total", "setting": "CYT and NE", "value": 1498}, {"measurement": "GO BP Cell cycle, summed fold-changes", "setting": "CYT fraction", "value": -2.0}, {"measurement": "GO BP Cell division, summed fold-changes", "setting": "CYT fraction", "value": 1.8}, {"measurement": "GO BP Chromatin organization, summed fold-changes", "setting": "CYT fraction", "value": -9.6}, {"measurement": "GO BP DNA damage response, summed fold-changes", "setting": "CYT fraction", "value": -1.3}, {"measurement": "GO BP DNA repair, summed fold-changes", "setting": "CYT fraction", "value": -5.7}, {"measurement": "GO BP DNA replication, summed fold-changes", "setting": "CYT fraction", "value": -0.75}, {"measurement": "GO BP Intracellular protein transport, summed fold-changes", "setting": "CYT fraction", "value": -1.2}, {"measurement": "GO BP Mitotic cytokinesis, summed fold-changes", "setting": "CYT fraction", "value": 0.635}, {"measurement": "GO BP Negative regulation of DNA-templated transcription, summed fold-changes", "setting": "CYT fraction", "value": -4.7}, {"measurement": "GO BP Nucleocytoplasmic transport, summed fold-changes", "setting": "CYT fraction", "value": 0.157}, {"measurement": "GO BP Positive regulation of DNA-templated transcription, summed fold-changes", "setting": "CYT fraction", "value": -4.1}, {"measurement": "GO BP Proteasome-mediated ubiquitin-dependent protein catabolic process, summed fold-changes", "setting": "CYT fraction", "value": 0.556}, {"measurement": "GO BP Protein folding, summed fold-changes", "setting": "CYT fraction", "value": 0.665}, {"measurement": "GO BP Protein stabilization, summed fold-changes", "setting": "CYT fraction", "value": 1.4}, {"measurement": "GO BP Protein transport, summed fold-changes", "setting": "CYT fraction", "value": -4.1}, {"measurement": "GO BP Purine nucleotide biosynthetic process, summed fold-changes", "setting": "CYT fraction", "value": -1.4}, {"measurement": "GO BP RNA splicing, summed fold-changes", "setting": "CYT fraction", "value": 2.7}, {"measurement": "GO BP Regulation of apoptotic process, summed fold-changes", "setting": "CYT fraction", "value": -0.9}, {"measurement": "GO BP Regulation of cell fate specification, summed fold-changes", "setting": "CYT fraction", "value": -2.6}, {"measurement": "GO BP Regulation of double-strand break repair, summed fold-changes", "setting": "CYT fraction", "value": -0.5}, {"measurement": "GO BP Regulation of stem cell differentiation, summed fold-changes", "setting": "CYT fraction", "value": -2.1}, {"measurement": "GO BP Response to oxidative stress, summed fold-changes", "setting": "CYT fraction", "value": -2.8}, {"measurement": "GO BP Ribosomal small subunit biogenesis, summed fold-changes", "setting": "CYT fraction", "value": 3.8}, {"measurement": "GO BP Ribosome biogenesis, summed fold-changes", "setting": "CYT fraction", "value": 1.0}, {"measurement": "GO BP Ubiquitin-dependent protein catabolic process, summed fold-changes", "setting": "CYT fraction", "value": -4.3}, {"measurement": "GO BP Vesicle-mediated transport, summed fold-changes", "setting": "CYT fraction", "value": -2.0}, {"measurement": "GO BP mRNA processing, summed fold-changes", "setting": "CYT fraction", "value": 2.8}, {"measurement": "GO BP mRNA splicing, via spliceosome, summed fold-changes", "setting": "CYT fraction", "value": 5.8}, {"measurement": "GO BP mRNA transport, summed fold-changes", "setting": "CYT fraction", "value": 3.1}, {"measurement": "GO BP rRNA processing, summed fold-changes", "setting": "CYT fraction", "value": 6.9}, {"measurement": "GO CC Azurophil granule lumen, summed fold-changes", "setting": "CYT fraction", "value": -3.8}, {"measurement": "GO CC Chromatin, summed fold-changes", "setting": "CYT fraction", "value": -3.8}, {"measurement": "GO CC Chromosome, centromeric region, summed fold-changes", "setting": "CYT fraction", "value": 2.2}, {"measurement": "GO CC Chromosome, summed fold-changes", "setting": "CYT fraction", "value": 0.0303}, {"measurement": "GO CC Chromosome, telomeric region, summed fold-changes", "setting": "CYT fraction", "value": -5.4}, {"measurement": "GO CC Condensin complex, summed fold-changes", "setting": "CYT fraction", "value": 1.7}, {"measurement": "GO CC Cytoskeleton, summed fold-changes", "setting": "CYT fraction", "value": 2.2}, {"measurement": "GO CC Endosome, summed fold-changes", "setting": "CYT fraction", "value": -2.0}, {"measurement": "GO CC Extracellular exosome, summed fold-changes", "setting": "CYT fraction", "value": -48.5}, {"measurement": "GO CC Fibrillar center, summed fold-changes", "setting": "CYT fraction", "value": 1.3}, {"measurement": "GO CC Ficolin-1-rich granule lumen, summed fold-changes", "setting": "CYT fraction", "value": -4.9}, {"measurement": "GO CC Focal adhesion, summed fold-changes", "setting": "CYT fraction", "value": -5.9}, {"measurement": "GO CC Intracellular membrane-bounded organelle, summed fold-changes", "setting": "CYT fraction", "value": -2.0}, {"measurement": "GO CC Kinetochore, summed fold-changes", "setting": "CYT fraction", "value": 1.6}, {"measurement": "GO CC Lipid droplet, summed fold-changes", "setting": "CYT fraction", "value": -1.3}, {"measurement": "GO CC Lysosome, summed fold-changes", "setting": "CYT fraction", "value": -2.9}, {"measurement": "GO CC Microtubule cytoskeleton, summed fold-changes", "setting": "CYT fraction", "value": 1.6}, {"measurement": "GO CC Mitochondrion, summed fold-changes", "setting": "CYT fraction", "value": -13.5}, {"measurement": "GO CC Nuclear envelope, summed fold-changes", "setting": "CYT fraction", "value": -0.6}, {"measurement": "GO CC Nuclear speck, summed fold-changes", "setting": "CYT fraction", "value": 3.4}, {"measurement": "GO CC Nucleolus, summed fold-changes", "setting": "CYT fraction", "value": 1.4}, {"measurement": "GO CC Nucleoplasm, summed fold-changes", "setting": "CYT fraction", "value": -8.6}, {"measurement": "GO CC Nucleus, summed fold-changes", "setting": "CYT fraction", "value": -23.5}, {"measurement": "GO CC Proteasome complex, summed fold-changes", "setting": "CYT fraction", "value": 0.475}, {"measurement": "GO CC Protein-containing complex, summed fold-changes", "setting": "CYT fraction", "value": -2.9}, {"measurement": "GO CC Ribonucleoprotein complex, summed fold-changes", "setting": "CYT fraction", "value": 3.1}, {"measurement": "GO CC SCAR complex, summed fold-changes", "setting": "CYT fraction", "value": 0.9}, {"measurement": "GO CC Small-subunit processome, summed fold-changes", "setting": "CYT fraction", "value": 4.9}, {"measurement": "GO CC Spliceosomal complex, summed fold-changes", "setting": "CYT fraction", "value": 2.7}, {"measurement": "GO CC Transcription repressor complex, summed fold-changes", "setting": "CYT fraction", "value": -2.7}, {"measurement": "GO CC Vesicle, summed fold-changes", "setting": "CYT fraction", "value": -2.7}, {"measurement": "KEGG pathway ATP-dependent chromatin remodeling, summed fold-changes", "setting": "CYT fraction", "value": -1.8}, {"measurement": "KEGG pathway Apoptosis, summed fold-changes", "setting": "CYT fraction", "value": 2.5}, {"measurement": "KEGG pathway Basal transcription factors, summed fold-changes", "setting": "CYT fraction", "value": -1.0}, {"measurement": "KEGG pathway Biosynthesis of amino acids, summed fold-changes", "setting": "CYT fraction", "value": -5.4}, {"measurement": "KEGG pathway Biosynthesis of cofactors, summed fold-changes", "setting": "CYT fraction", "value": 2.8}, {"measurement": "KEGG pathway Cell cycle, summed fold-changes", "setting": "CYT fraction", "value": -3.3}, {"measurement": "KEGG pathway Nucleocytoplasmic transport, summed fold-changes", "setting": "CYT fraction", "value": 0.8}, {"measurement": "KEGG pathway Polycomb repressive complex, summed fold-changes", "setting": "CYT fraction", "value": -2.9}, {"measurement": "KEGG pathway Proteasome, summed fold-changes", "setting": "CYT fraction", "value": -0.152}, {"measurement": "KEGG pathway Ribosome biogenesis in eukaryotes, summed fold-changes", "setting": "CYT fraction", "value": 1.9}, {"measurement": "GO BP Cell cycle, summed fold-changes", "setting": "NE fraction", "value": 26.1}, {"measurement": "GO BP Cell division, summed fold-changes", "setting": "NE fraction", "value": 26.9}, {"measurement": "GO BP Chromatin organization, summed fold-changes", "setting": "NE fraction", "value": 28.0}]}]}
